From BigSolDB 2.1

Cc1ccc(Nc2nccc(N(C)c3ccc4c(C)n(C)nc4c3)n2)cc1S(N)(=O)=O
solubility (mole fraction)
Conditions	288.15 K	293.15 K	298.15 K	303.15 K	308.15 K	313.15 K	318.15 K	323.15 K	328.15 K
in acetonitrile	1.08e-06	3.07e-06	5.16e-06	7.86e-06	1.11e-05	1.44e-05	1.8e-05	2.21e-05	2.72e-05
in n-butanol	1.07e-05	1.46e-05	1.88e-05	2.34e-05	2.86e-05	3.42e-05	4.04e-05	4.7e-05	5.43e-05
in n-propanol	9.96e-06	1.33e-05	1.67e-05	2.09e-05	2.55e-05	3.1e-05	3.65e-05	4.39e-05	5.11e-05
